# In patent US5703106A, “Antagonists of endothelin receptors” (priority 1994, dated 1997):
# Biological target: T1, ETB receptor (Sus scrofa, UniProt P35463)
# T1 construct: The plasma membrane of porcine lung (2 mg of protein); from tissue; host or cells: porcine lung plasma membrane
# T1 sequence (P35463 27-443): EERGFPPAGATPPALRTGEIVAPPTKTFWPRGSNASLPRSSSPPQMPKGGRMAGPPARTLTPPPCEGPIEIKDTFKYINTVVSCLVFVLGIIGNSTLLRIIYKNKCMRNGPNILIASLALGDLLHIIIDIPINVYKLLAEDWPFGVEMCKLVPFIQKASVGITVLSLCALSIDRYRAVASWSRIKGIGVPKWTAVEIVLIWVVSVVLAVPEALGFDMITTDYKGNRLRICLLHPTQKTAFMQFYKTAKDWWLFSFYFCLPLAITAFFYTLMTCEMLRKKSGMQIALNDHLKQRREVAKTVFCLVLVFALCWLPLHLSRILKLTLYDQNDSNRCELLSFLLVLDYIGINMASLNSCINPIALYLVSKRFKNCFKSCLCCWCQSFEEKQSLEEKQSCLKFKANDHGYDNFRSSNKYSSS
# Assay: Endothelin (ET) receptor binding assay, ETB receptor
# Conditions: [^125 I]ET-3 alone; porcine lung plasma membrane; 37° C., 1 hour, pH 7.4
# Method: Endothelin (ET) receptor binding assay
# (§1) After the incubation, unbound [^125 I]ETs were separated by centrifugation at 20,000×g for 20 min at 4° C. followed by aspiration of the supernatant. The radioactivity in the membrane pellet is measured in Wallac-1470 Wizard autogamma counter (Pharmacia). Nonspecific binding is defined as membrane-associated radioactivity in the presence of saturating concentrations of ETs (100 nM). Nonspecific binding is subtracted from the total binding and the difference is defined as specific binding.
row,Compound,Ki [nM]
1,Cc1cc(C)cc(C(=O)N(C)[C@H](Cc2ccc(-c3ccno3)cc2)C(=O)NC(Cc2c[nH]c3ccccc23)C(=O)NS(=O)(=O)c2ccccc2)c1 (some centres unmarked) [Example 6],0.34
2,"Cc1cc(C)cc(C(=O)N(C)[C@H](Cc2ccc(O)cc2)C(=O)NC(Cc2c[nH]c3ccccc23)C(=O)NS(=O)(=O)c2ccccc2)c1 (some centres unmarked) [7(9), N-benzenesulfonyl-[N-(3,5-dimethylbenzoyl)-N-methyl-3-(4-hydroxyphenyl)-(D)-alanyl]-(D,L)-tryptophanamide]",2.3
3,"CCCCS(=O)(=O)NC(=O)[C@H](Cc1c[nH]c2ccccc12)NC(=O)C(Cc1ccc(-n2ccnn2)cc1)N(C)C(=O)c1cc(C)cc(C)c1 (some centres unmarked) [Example 13, N-butanesulfonyl-[N-(3,5-dimethylbenzoyl)-N-methyl-3-[4-(1,2,3-triazol-1-yl)-phenyl]-(D,L)-alanyl]-(L)-tryptophanamide]",0.27
4,"C=CCS(=O)(=O)NC(=O)[C@H](Cc1c[nH]c2ccccc12)NC(=O)C(Cc1ccc(-c2ccno2)cc1)N(C)C(=O)c1cc(C)cc(C)c1 (some centres unmarked) [Example 9, N-(2-propene)sulfonyl-[N-(3,5-dimethylbenzoyl)-N-methyl-3-[4-(5-isoxazolyl)-phenyl]-(D,L)-alanyl]-(L)-tryptophanamide]",0.23
5,"CCCCS(=O)(=O)NC(=O)[C@@H](NC(=O)C(Cc1ccc(-c2ccno2)cc1)N(C)C(=O)c1cc(C)cc(C)c1)[C@@H](C)CC (some centres unmarked) [10(a), N-butanesulfonyl-[N-(3,5-dimethylbenzoyl)-N-methyl-3-[4-(5-isoxazolyl)-phenyl]-(D,L)-alanyl]-(L)-isoleucineamide]",3.5
6,"CCCCS(=O)(=O)NC(=O)[C@H](Cc1c[nH]c2ccccc12)NC(=O)C(Cc1ccc(-n2cncn2)cc1)N(C)C(=O)c1cc(C)cc(C)c1 (some centres unmarked) [Example 12, N-butanesulfonyl-[N-(3,5-dimethylbenzoyl)-N-methyl-3-[4-(1,2,4-triazol-1-yl)-phenyl]-(D,L)-alanyl]-(L)-tryptophanamide]",0.16
7,"CCCCS(=O)(=O)NC(=O)[C@H](Cc1c[nH]c2ccccc12)NC(=O)C(Cc1ccc(-c2ccno2)cc1)N(C)C(=O)c1cc(C)cc(C)c1 (some centres unmarked) [Example 8, N-butanesulfonyl-[N-(3,5-dimethylbenzoyl)-N-methyl-3-[4-(5-isoxazolyl)-phenyl]-(D,L)-alanyl]-(L)-tryotophanamide]",0.24
8,"Cc1cc(C)cc(C(=O)N(C)[C@H](Cc2ccc(-c3ccsc3)cc2)C(=O)NC(Cc2c[nH]c3ccccc23)C(=O)NS(=O)(=O)c2cccs2)c1 (some centres unmarked) [Example 2, N-(2-thienyl)sulfonyl-[N-(3,5-dimethylbenzoyl)-N-methyl-(D)-3-[4-(3-thienyl)phenyl]-alanyl]-(D,L)-tryptophanamide]",0.3
9,"Cc1cc(C)cc(C(=O)N(C)[C@H](Cc2ccc(-c3ccccc3)cc2)C(=O)NC(Cc2c[nH]c3ccccc23)C(=O)NS(=O)(=O)c2ccccc2)c1 (some centres unmarked) [Example 1, N-benzenesulfonyl-[N-(3,5-dimethylbenzoyl)-N-methyl-3-(biphenyl-4-yl)-(D)-alanyl]-(D,L)-tryptophanamide]",0.9
10,"CCCCS(=O)(=O)NC(=O)[C@@H](NC(=O)C(Cc1ccc(-c2ccno2)cc1)N(C)C(=O)c1cc(C)cc(C)c1)C(C)C (some centres unmarked) [Example 11, N-butanesulfonyl-[N-(3,5-dimethylbenzoyl)-N-methyl-3-[4-(5-isoxazolyl)-phenyl]-(D,L)-alanyl]-(L)-valineamide]",1.2

# Biological target: T1, ETB receptor
# Assay: Scatchard analysis of radioligand binding, ETB receptor
# Conditions: porcine lung plasma membrane, [^125 I]ET-3 alone
# Method: as §1, with “binding. Total binding is always less than 15% of the total radioactivity added. […] From the inhibition curves for the binding of [^125 I]ETs, the apparant binding affinity constant (Ki) of one of the test compounds is calculated as a parameter of the affinity for the ETA and ETB receptors, as shown in the following table.” for “binding.”
row,Compound,Bmax [fmol/mg protein]
1,[^125 I]ET-3: radiolabelled endothelin-3 purchased from Amersham International; ETs are vasoactive peptides with 21 amino acid residues,362
